# Calls of active or inactive are those of the source. The rule behind the calls is not given here.
# Assays:
# [1] = Metabolic stability in rat liver microsomes assessed as half life; assay type: ADME, Microsome
# Mus musculus [2] = test: (§1) Antiinflammatory activity in MOG (35 to 55 residues)/pertussis toxin-induced experimental autoimmune encephalomyelitis C57BL/6 mouse model assessed as reduction in demyelination in transverse section of lumbar spinal cords at 5 to 10 mg/kg, ip administered starting from day 3 to day 28 by LFB staining based analysis; assay type: functional, organism-based; settings: dose 5-10 mg/kg, time 25.0 day
# [3] = Cmax in C57BL/6 mouse at 10 mg/kg, ip measured upto 24 hrs by LC-MS/MS analysis; assay type: ADME, organism-based; set-up: dose 10 mg/kg, time < 24 hrs, route ip; settings: in vivo
# [4] = Tmax in C57BL/6 mouse at 10 mg/kg, ip measured upto 24 hrs by LC-MS/MS analysis; assay type: ADME, organism-based; settings: in vivo
# Mus musculus [5] = test: Antiinflammatory activity in MOG (35 to 55 residues)/pertussis toxin-induced experimental autoimmune encephalomyelitis C57BL/6 mouse model assessed as reduction in clinical score administered intraperitoneally starting from day 3 to day 28; assay type: functional, organism-based; settings: route ip, time 25.0 day, DDE = dose-dependent effect
# [6] = AUClast in C57BL/6 mouse at 10 mg/kg, ip measured upto 24 hrs by LC-MS/MS analysis; assay type: ADME, organism-based; set-up: time < 24 hrs, dose 10 mg/kg, route ip; settings: in vivo
# [7] = Metabolic stability in mouse liver microsomes assessed as intrinsic clearance; assay type: ADME, Microsome; settings: read-out: CLH
# [8] = AUCinfinity in C57BL/6 mouse at 10 mg/kg, ip measured upto 24 hrs by LC/MS-MS analysis; assay type: ADME, organism-based; set-up: dose 10 mg/kg, time < 24 hrs, route ip; settings: in vivo
# Mus musculus [9] = test: as §1, with “of inflammatory cell infiltration” for “in demyelination”, “H&E” for “LFB”; assay type: functional, organism-based; settings: dose 5-10 mg/kg, time 25.0 day
# [10] = Toxicity in MOG (35 to 55 residues)/pertussis toxin-induced experimental autoimmune encephalomyelitis C57BL/6 mouse model assessed as body weight loss at 5 to 10 mg/kg, ip administered starting from day 3 to day 28; assay type: organism-based; settings: in vivo, 600 h, dose 5-10 mg/kg, time 25 day
# [11] = Toxicity in MOG (35 to 55 residues)/pertussis toxin-induced experimental autoimmune encephalomyelitis C57BL/6 mouse model assessed as behavioral changes at 10 mg/kg, ip administered once daily starting from day 3 to day 28; assay type: organism-based; settings: in vivo, 600 h, time 25 day
# Cannabinoid receptor 1 [12] = target: T1, Cannabinoid receptor 1 (Homo sapiens, UniProt P21554); test: Displacement of [3H]-CP55940 from recombinant human CB1 receptor expressed in CHO cells assessed as inhibition constant incubated for 120 mins by radioligand binding assay; assay type: cell-based
# [13] = Metabolic stability in human liver microsomes assessed as half life; assay type: ADME, Microsome
# [14] = Metabolic stability in human liver microsomes assessed as intrinsic clearance; assay type: ADME, Microsome; settings: read-out: CLH
# [15] = Metabolic stability in mouse liver microsomes assessed as half life; assay type: ADME, Microsome
# Mus musculus [16] = test: as §1, with “of inflammatory cell infiltration” for “in demyelination”; assay type: functional, organism-based; settings: dose 5-10 mg/kg, time 25.0 day
# Cannabinoid receptor 1 [17] = target: T1, Cannabinoid receptor 1; test: Agonist activity at recombinant human CB1 receptor expressed in CHO cells assessed as inhibition of forskolin-induced cAMP accumulation preincubated for 15 mins followed by forskolin stimulation and measured after 15 mins by HTRF assay; assay type: functional, cell-based
# Cannabinoid receptor 1 [18] = target: T1, Cannabinoid receptor 1; test: Agonist activity at recombinant human CB1 receptor expressed in CHO cells assessed as inhibition of forskolin-induced cAMP accumulation by measuring maximum efficacy preincubated for 15 mins followed by forskolin stimulation and measured after 15 mins by HTRF assay relative to control; assay type: functional, cell-based; settings: filed as agonist, time 30.0 min
# Cannabinoid receptor 2 [19] = target: T2, Cannabinoid receptor 2 (Homo sapiens, UniProt P34972); test: Displacement of [3H]-CP55940 from recombinant human CB2 receptor expressed in CHO cells assessed as inhibition constant incubated for 120 mins by radioligand binding assay; assay type: cell-based
# [20] = Metabolic stability in rat liver microsomes assessed as intrinsic clearance; assay type: ADME, Microsome; settings: read-out: CLH
# Mus musculus [21] = test: as §1, with “infarcted brain proportion” for “demyelination in transverse section of lumbar spinal cords”, “TTC” for “LFB”, “analysis relative to control” for “analysis”; assay type: functional; set-up: scale not given: the % may be the effect or the level left; settings: dose 5-10 mg/kg, time 25 day
# Cannabinoid receptor 2 [22] = target: T2, Cannabinoid receptor 2; test: Agonist activity at recombinant human CB2 receptor expressed in CHO cells assessed as inhibition of forskolin-induced cAMP accumulation preincubated for 15 mins followed by forskolin stimulation and measured after 15 mins by HTRF assay; assay type: functional, cell-based
# [23] = Half life in C57BL/6 mouse at 10 mg/kg, ip measured upto 24 hrs by LC-MS/MS analysis; assay type: ADME, organism-based; settings: in vivo
# Cannabinoid receptor 2 [24] = target: T2, Cannabinoid receptor 2; test: Agonist activity at recombinant human CB2 receptor expressed in CHO cells assessed as inhibition of forskolin-induced cAMP accumulation by measuring maximum efficacy preincubated for 15 mins followed by forskolin stimulation and measured after 15 mins by HTRF assay relative to control; assay type: functional, cell-based; settings: filed as agonist, time 30.0 min
# Mus musculus [25] = test: as §1, with “H&E” for “LFB”; assay type: functional, organism-based; settings: dose 5-10 mg/kg, time 25.0 day
# T1 sequence (P21554 whole entry): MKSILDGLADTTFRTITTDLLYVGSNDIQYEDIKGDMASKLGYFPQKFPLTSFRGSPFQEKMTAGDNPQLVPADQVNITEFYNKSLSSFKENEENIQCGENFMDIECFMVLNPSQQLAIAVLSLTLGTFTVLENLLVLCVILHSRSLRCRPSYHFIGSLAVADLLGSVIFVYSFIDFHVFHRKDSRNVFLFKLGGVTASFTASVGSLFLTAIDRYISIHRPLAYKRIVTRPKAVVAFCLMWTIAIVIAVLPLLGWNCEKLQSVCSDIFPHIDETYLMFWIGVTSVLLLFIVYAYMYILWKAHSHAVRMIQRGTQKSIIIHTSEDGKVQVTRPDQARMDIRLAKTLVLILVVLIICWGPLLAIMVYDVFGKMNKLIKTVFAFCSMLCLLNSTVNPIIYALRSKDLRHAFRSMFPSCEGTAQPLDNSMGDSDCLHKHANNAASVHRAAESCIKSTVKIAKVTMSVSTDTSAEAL
# T2 sequence (P34972 whole entry): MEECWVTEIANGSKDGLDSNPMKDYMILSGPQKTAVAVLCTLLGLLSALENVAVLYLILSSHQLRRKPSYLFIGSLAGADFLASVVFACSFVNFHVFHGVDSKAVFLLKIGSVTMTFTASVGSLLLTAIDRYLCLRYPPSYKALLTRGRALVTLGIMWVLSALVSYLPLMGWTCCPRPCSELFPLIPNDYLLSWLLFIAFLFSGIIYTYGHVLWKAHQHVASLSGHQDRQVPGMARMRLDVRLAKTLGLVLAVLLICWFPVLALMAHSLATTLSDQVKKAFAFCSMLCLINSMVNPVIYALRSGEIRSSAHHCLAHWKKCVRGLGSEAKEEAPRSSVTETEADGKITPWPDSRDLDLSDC
smiles,measurement,setting,value
C=C(C)[C@@H]1CCC(C)=C[C@H]1c1c(O)cc([Si](C)(C)CCCCCC)cc1O,half-life,[1],19.4 min
same,Activity,Mus musculus [2],Active
same,Cmax,[3],1510 ng/mL
same,Tmax,[4],120 min
same,Activity,Mus musculus [5],Dde
same,AUC(0-t) at 24 h,[6],6630 ng·h/mL
same,CLint scaled,[7],128 mL/min/kg
same,AUC(0-inf),[8],6840 ng·h/mL
same,Activity,Mus musculus [9],Active
same,Activity,[10],Non-Toxic
same,Activity,[11],Toxic
same,Ki,Cannabinoid receptor 1 [12],1.56 nM
same,half-life,[13],31.5 min
same,CLint scaled,[14],55.2 mL/min/kg
same,half-life,[15],17.1 min
same,Activity,Mus musculus [16],Active
same,EC50,Cannabinoid receptor 1 [17],219 nM
same,Emax,Cannabinoid receptor 1 [18],95.9%
same,Ki,Cannabinoid receptor 2 [19],4.66 nM
same,CLint scaled,[20],318 mL/min/kg
same,Activity,Mus musculus [21],50%
same,EC50,Cannabinoid receptor 2 [22],149 nM
same,half-life,[23],314 min
same,Emax,Cannabinoid receptor 2 [24],75.6%
same,Activity,Mus musculus [25],Active
